Measurements published in patent US20250230193A1, “CYCLIC COMPOUND HAVING SELECTIVE KRAS INHIBITORY EFFECT ON HRAS AND NRAS” (CHUGAI SEIYAKU KABUSHIKI KAISHA, priority 2022, published 2025).

How the values were obtained:
[1] = molecular target: GDP-bound HRAS wild-type protein (Homo sapiens, UniProt P01112); test: Binding to HRAS by surface plasmon resonance (SPR), Single Cycle Kinetics; conditions: KD ratio HRAS/KRAS, class symbols
[2] = molecular target: GDP-bound NRAS wild-type protein (Homo sapiens, UniProt P01111); test: Binding to NRAS by surface plasmon resonance (SPR), Single Cycle Kinetics; conditions: KD ratio NRAS/KRAS, class symbols
GDP-bound NRAS wild-type protein, sequence (P01111 whole entry): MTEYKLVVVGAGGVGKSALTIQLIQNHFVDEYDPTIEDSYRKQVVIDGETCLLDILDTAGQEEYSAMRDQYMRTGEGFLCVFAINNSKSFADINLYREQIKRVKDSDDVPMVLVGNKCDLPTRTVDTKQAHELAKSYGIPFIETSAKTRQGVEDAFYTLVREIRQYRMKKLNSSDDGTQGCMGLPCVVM

GDP-bound HRAS wild-type protein, sequence (P01112 whole entry): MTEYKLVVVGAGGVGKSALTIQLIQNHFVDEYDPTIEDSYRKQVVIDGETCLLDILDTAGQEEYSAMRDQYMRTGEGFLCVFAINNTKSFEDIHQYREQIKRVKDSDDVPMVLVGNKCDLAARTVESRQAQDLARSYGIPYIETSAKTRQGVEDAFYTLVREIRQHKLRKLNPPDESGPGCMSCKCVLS

SMILES | HRAS/KRAS (ratio of KD value with respect to GDP-bound HRAS wild-type protein to KD value with respect to KRAS) [1] | NRAS/KRAS (ratio of KD value with respect to GDP-bound NRAS wild-type protein to KD value with respect to KRAS) [2]
CCCC[C@H]1C(=O)N[C@@H]([C@@H](C)CC)C(=O)N(C)CC(=O)N(C)[C@H]2C/C=C\CCN(C2=O)[C@@H](Cc2ccc(C)cc2)C(=O)N(C)CC(=O)N[C@@H](CCc2cc(F)c(C(F)(F)F)c(F)c2)C(=O)N2C[C@H](OCC)C[C@H]2C(=O)NC2(CC(C)(C)C2)C(=O)N(C)[C@@H](C2CCCC2)C(=O)N(C)[C@H](C(=O)N(C)CC)CC(=O)N1C [PP2808] | B (a compound having 3 or more and less than 10 is denoted as B) | B (a compound having 3 or more and less than 10 is denoted as B)
CCC[C@H]1C(=O)N[C@@H]([C@@H](C)CC)C(=O)N(C)CC(=O)N(C)[C@H]2C/C=C\CCN(C2=O)[C@@H](Cc2ccc(C(F)(F)F)cc2)C(=O)N(C)CC(=O)N[C@@H](CCc2ccc(C(F)(F)F)c(OC)c2)C(=O)N2C[C@H](OCC)C[C@H]2C(=O)NC2(CC(C)(C)C2)C(=O)N(C)[C@@H](CC2CC2)C(=O)N(C)[C@H](C(=O)N(C)C)CC(=O)N1C [PP2809] | A (a compound having 10 or more and less than 20 is denoted as A) | A (a compound having 10 or more and less than 20 is denoted as A)
CCO[C@@H]1C[C@H]2C(=O)N(C)C3(CC(C)(C)C3)C(=O)N(C)[C@@H](C(CC)CC)C(=O)N(C)[C@H](C(=O)N(C)C)CC(=O)N(C)[C@@H](COC)C(=O)N[C@@H]([C@@H](C)CC)C(=O)N(C)CC(=O)N(C)[C@H]3C/C=C\CCN(C3=O)[C@@H](Cc3ccc(C)cc3)C(=O)N(C)CC(=O)N[C@@H](CCc3ccc(Cl)c(Cl)c3)C(=O)N2C1 [PP2810] | A (a compound having 10 or more and less than 20 is denoted as A) | AA (a compound having 20 or more is denoted as AA)
CCC[C@H]1C(=O)N[C@@H]([C@@H](C)CC)C(=O)N(C)CC(=O)N(C)[C@H]2C/C=C\CCN(C2=O)[C@@H](Cc2ccc(C(F)(F)F)cc2)C(=O)N(C)CC(=O)N[C@@H](CCc2ccc(Cl)c(Cl)c2)C(=O)N2C[C@H](OCC)C[C@H]2C(=O)NC2(CC(C)(C)C2)C(=O)N(C)[C@@H](CC2CC2)C(=O)N(C)[C@H](C(=O)N(C)C)CC(=O)N1C [PP2811] | A (a compound having 10 or more and less than 20 is denoted as A) | A (a compound having 10 or more and less than 20 is denoted as A)
CCCO[C@@H]1C[C@H]2C(=O)N(C)C3(CC(C)(C)C3)C(=O)N(C)[C@@H](C(CC)CC)C(=O)N(C)[C@H](C(=O)N(C)C)CC(=O)N(C)[C@@H](COC)C(=O)N[C@@H]([C@@H](C)CC)C(=O)N(C)CC(=O)N(C)[C@H]3C/C=C\CCN(C3=O)[C@@H](Cc3ccc(C)cc3)C(=O)N(C)CC(=O)N[C@@H](CCc3ccc(Cl)c(Cl)c3)C(=O)N2C1 [PP2812] | A (a compound having 10 or more and less than 20 is denoted as A) | AA (a compound having 20 or more is denoted as AA)
CCC[C@H]1C(=O)N[C@@H]([C@@H](C)CC)C(=O)N(C2CC2)CC(=O)N(C)[C@H]2C/C=C\CCN(C2=O)[C@@H](Cc2ccc(C(F)(F)F)cc2)C(=O)N(C)CC(=O)N[C@@H](CCc2cc(F)c(C(F)(F)F)c(F)c2)C(=O)N2C[C@H](OCC)C[C@H]2C(=O)NC2(CC(C)(C)C2)C(=O)N(C)[C@@H](CC2CC2)C(=O)N(C)[C@H](C(=O)N(C)C)CC(=O)N1C [PP2813] | A (a compound having 10 or more and less than 20 is denoted as A) | AA (a compound having 20 or more is denoted as AA)
CCC(CC)[C@H]1C(=O)N(C)[C@H](C(=O)N(C)C)CC(=O)N(C)[C@@H](COC)C(=O)N[C@@H]([C@@H](C)CC)C(=O)N(C)CC(=O)N(C)[C@H]2C/C=C\CCN(C2=O)[C@@H](Cc2ccc(C)cc2)C(=O)N(C)CC(=O)N[C@@H](CCc2ccc(Cl)c(Cl)c2)C(=O)N2C[C@H](OC(C)C)C[C@H]2C(=O)N(C)C2(CC(C)(C)C2)C(=O)N1C [PP2814] | A (a compound having 10 or more and less than 20 is denoted as A) | AA (a compound having 20 or more is denoted as AA)
CCC[C@H]1C(=O)N[C@@H]([C@@H](C)CC)C(=O)N(C2CC2)CC(=O)N(C)[C@H]2C/C=C\CCN(C2=O)[C@@H](Cc2ccc(C(F)(F)F)cc2)C(=O)N(C)CC(=O)N[C@@H](CCc2ccc(C(F)(F)F)c(OC)c2)C(=O)N2C[C@H](OCC)C[C@H]2C(=O)NC2(CC(C)(C)C2)C(=O)N(C)[C@@H](CC2CC2)C(=O)N(C)[C@H](C(=O)N(C)C)CC(=O)N1C [PP2815] | A (a compound having 10 or more and less than 20 is denoted as A) | A (a compound having 10 or more and less than 20 is denoted as A)
CCC(CC)[C@H]1C(=O)N(C)[C@H](C(=O)N(C)C)CC(=O)N(C)[C@@H](COC)C(=O)N[C@@H]([C@@H](C)CC)C(=O)N(C)CC(=O)N(C)[C@H]2C/C=C\CCN(C2=O)[C@@H](Cc2ccc(C)cc2)C(=O)N(C)CC(=O)N[C@@H](CCc2ccc(Cl)c(Cl)c2)C(=O)N2C[C@H](OC3CCC3)C[C@H]2C(=O)N(C)C2(CC(C)(C)C2)C(=O)N1C [PP2816] | A (a compound having 10 or more and less than 20 is denoted as A) | AA (a compound having 20 or more is denoted as AA)
CCC[C@H]1C(=O)N[C@@H]([C@@H](C)CC)C(=O)N(C2CC2)CC(=O)N(C)[C@H]2C/C=C\CCN(C2=O)[C@@H](Cc2ccc(C(F)(F)F)cc2)C(=O)N(C)CC(=O)N[C@@H](CCc2ccc(Cl)c(Cl)c2)C(=O)N2C[C@H](OCC)C[C@H]2C(=O)NC2(CC(C)(C)C2)C(=O)N(C)[C@@H](CC2CC2)C(=O)N(C)[C@H](C(=O)N(C)C)CC(=O)N1C [PP2817] | A (a compound having 10 or more and less than 20 is denoted as A) | A (a compound having 10 or more and less than 20 is denoted as A)
CCC(CC)[C@H]1C(=O)N(C)[C@H](C(=O)N(C)C)CC(=O)N(C)[C@@H](COC)C(=O)N[C@@H]([C@@H](C)CC)C(=O)N(C)CC(=O)N(C)[C@H]2C/C=C\CCN(C2=O)[C@@H](Cc2ccc(C)cc2)C(=O)N(C)CC(=O)N[C@@H](CCc2ccc(Cl)c(Cl)c2)C(=O)N2C[C@H](OC3CCCC3)C[C@H]2C(=O)N(C)C2(CC(C)(C)C2)C(=O)N1C [PP2818] | A (a compound having 10 or more and less than 20 is denoted as A) | A (a compound having 10 or more and less than 20 is denoted as A)
